Data published in patent publication US9492423B2, “Formulations of histone deacetylase inhibitor in combination with bendamustine and uses thereof” (PHARMACYCLICS LLC, priority 2011, dated 2016).

Experiments:
[1] = tested on: Neuroblastoma cell lines and patient-derived primary neuroblastoma cultures; test: Neuroblastoma cell viability, calcein AM assay; format: cell-based; conditions: 48 hours, viability by calcein AM
Protocol: Neuroblastoma cell lines and patient-derived primary neuroblastoma cultures were treated with bortezomib, Compound 1 alone or a combination of both agents for 48 hours. Cells were also treated with HDAC inhibitors vorinostat, sodium butyrate, and valproic acid and viability was assessed by calcein AM assays. mRNA from treated cells was evaluated at 6 and 24 hours using U133+ mRNA expression arrays and Ingenuity analysis. Dichlorofluorescein (DCF) was used to measure reactive oxygen species (ROS). Cell viability assays were repeated in the presence of N-acetylcysteine (NAC). Western blot evaluated caspase-3 and PARP cleavage. Nude mice were injected with 10^7 SMS-KCNR cells subcutaneously and treated with daily doses of 0.5 mg/kg bortezomib, 12.5 mg/kg Compound 1, or a combination of the two agents. Tumors were measured and imaged twice per week.

RAD51 [2] = test: Jurkat cells, pretreatment and bendamustine-induced RAD51 upregulation; format: cell-based, human; conditions: Jurkat cells pre-treated one day with 0.2 uM Compound 1, then 20 uM bendamustine for 1 day, FIG. 9
Protocol: Cells were pre-treated one day is advance with 0.2 uM HDAC inhibitor (i.e., Compound 1), then 20 uM bendamustine was added for 1 day.

[3] = Phase 1 trial of oral capsule Compound 1, HCl: plasma pharmacokinetics; format: in vivo; conditions: human, 30 mg/m^2 dose of capsule formulation of Example 2, solid tumor cancer patients, mean±SE, read-out: AUC0-4h for plasma concentrations
Protocol: (§1) This is a Phase 1 dose-escalation study of the safety, pharmacokinetics, and pharmacodynamics of Compound 1, HCl administered orally in patients with advanced cancer.
(§2) In the Phase 1 dose escalation study, up to 7 cohorts will receive Compound 1, HCl orally at doses starting at 30 mg/m^2, approximately 4-6 hours apart, up to 90 mg/m^2, 2 or 3 times a day according to 3 different dosing schedules within 28 day cycle (5 days of dosing followed by 2 days of no dosing; 5 days of dosing followed by 9 days of no dosing; 7 days of dosing followed by 7 days of no dosing) until the maximum tolerated dose is reached.
The following pharmacokinetic information was determined for patients that received a […] dose of the capsule formulation of Example 2. Solid tumor cancer patients received a […] dose of the capsule formulation of Example 2. Blood samples that were collected for up to 24 hours post-dosing were analyzed for pharmacokinetic evaluations. Plasma was harvested by centrifugation and stored at approximately −70° C. until analysis. Concentrations of Compound 1 were determined in plasma using HPLC gradient system (Hewlett Packard model 1100) was configured with Sciex API 3000 and a reversed phase column (Phenomenex, Luna C18, 3.0 μm, 50×2 mm i.d.). The mobile phase gradient consisted of 0.2% formic acid in water (A) and 0.2% formic acid in methanol (B). […]

[4] = Phase 1 trial of oral capsule Compound 1, HCl: safety, tolerability, pharmacodynamics; format: in vivo
Description: as §1
This study seeks to determine the highest dose of Compound 1, HCl that can be taken without causing serious side effects in patients with advanced cancer. The study will look at safety of the study drug (Compound 1, HCl) and whether the treatment schedule is tolerated by patients.
as §2
Patients should satisfy the following criteria: At least 18 years of age; histologically confirmed, measurable solid tumor, non-Hodgkin's lymphoma, Hodgkin's disease, chronic lymphocytic leukemia, or multiple myeloma that has relapsed after standard therapy or for which no standard therapy exists; ability to swallow oral capsules without difficulty; estimated life expectancy>12 weeks; ECOG performance status≦2; Creatinine≦1.5×institutional upper limit of normal (ULN); Total bilirubin≦1.5×institutional ULN (unless elevated from documented Gilbert's syndrome); AST and ALT≦2.5×institutional ULN (≦5×institutional ULN in the presence of liver metastases); Platelet count≧100,000/μL; ANC≧1500/μL; Hgb≧9.0 g/dL; Patients with previously treated, stable, asymptomatic brain metastases who are not on corticosteroids are eligible; Willing and able to sign a written informed consent.

H929 (Multiple Myeloma) = test: Tumor growth inhibition study, H929 bearing female SCID mice; format: in vivo; conditions: PCI-24781 12 mg/kg BID IP 5 d/wk; bendamustine 5.0 mg/kg qd IP 2 d/wk; FIG. 7
Protocol: Mice inoculated subcutaneously in the right hind flank with H929 MM cells at a density of 1×10^7 cells in a volume of 100 μL/mouse 4 groups of animals (n=8/group) received vehicle (BID, IP, 5 d/wk), PCI-24781 alone (12 mg/kg BID, IP, 5 d/wk), bendamustine alone 5.0 mg/kg (qd, IP, 2 d/wk Tu, Th) or the combination. Body weights and tumor measurements were collected a minimum of 2 times each week for all animals. Blood and tumor samples were collected at study termination for pharmacodynamic evaluations.

[5] = tested on: Jurkat (leukemia) and HCT-116 (colon tumor); test: In vitro dose scheduling studies, apoptosis by FACS (annexinV-FITC/PI); format: cell-based, human
Protocol: Pharmacokinetic data (pk) data from human patients was used to model various dose regimens using human cell lines: Jurkat (leukemia) and HCT-116 (colon tumor). The human cell lines were treated with or without a HDAC inhibitor (e.g. Compound 1). Cells were cultured, treated according to different regimens and concentrations to model the corresponding dosing regimen (continuous low dose: 0.2 μM; intravenous (IV): 2 μM 3 hours+0.3 μM 4 hours; oral BID: 0.4 μM 4 hours×2, 4 hours apart; oral consecutive BID: 0.4 μM 8 hours; oral consecutive TID: 0.266 μM 12 hours), then washed out to mimic the human in vivo PK.
Cell viability was examined by an analysis of apoptosis using fluorescence activated cell sorting (FACS) after staining with annexinV-FITC and propidium iodide (PI). In brief, after treatment, 1×10^6 cells were washed with phosphate buffered saline (PBS) and then labeled with annexinV-FITC/PI in the binding buffer according to manufacturer's protocol. Fluorescent signals of FITC and PI were detected at 518 nm and 620 nm, respectively, on a Beckman Coulter FACS instrument (Fullerton, Calif.). The data were analyzed with Flow Jo software (Tree Star, Ashland, Oreg.).

RAD51 [6] = test: Western blot of DNA repair proteins in multiple myeloma cell lines; format: cell-based; conditions: FIG. 6A
Description: RAD51 represents an essential component of homologous recombination (HR), one of the two major DNA double-strand break (DSB) repair pathways in cells; the second pathway, non-homologous end joining (NHEJ), represented here by two of its components Ku-70 and DNA-PKcs, is not affected by these treatments. […] As explained supra, the synergistic anti-multiple myeloma activity of the bendamustine-Compound 1 combination could be due to a reduction in RAD51 levels caused by the HDAC inhibitor (i.e., Compound 1).

[7] = Clinical PK of Compound 1 in solution form, single oral dose and 2-hour IV infusion doses; conditions: human, in vivo, humans
Protocol: In clinical trials involving humans with cancer, Compound 1 in solution form was administered at 2 mg/kg as a single oral dose and as multiple 2-hour IV infusion doses.

| SMILES | IC50 [1] | bendamustine-induced RAD51 upregulation (RAD51 [2]) | AUC(0-t) [3] | average grade of thrombocytopenia, TID versus BID consecutive dosing ([4]; daily exposure range of 0.63 to 2.15 μM·h) | therapeutic effect ([4]; immediate release capsule, 2 or 3 consecutive doses 4 to 6 hours apart on days of dosing) | incidence of Grade 4 thrombocytopenia (platelet count <25,000 per mm^2) ([4]; solid tumor and lymphoma patients, cycles of 7 days oral dosing followed by 7 days without dosing) | tumor growth inhibition (H929 (Multiple Myeloma)) | efficacy of modelled oral tid dosing versus bid dosing ([5]; 0.266 μM 12 hours versus 0.4 μM 8 hours) | efficacy of modelled oral bid dosing given consecutively (4 hours apart) versus with a break in between ([5]; 0.4 μM 8 hours versus 0.4 μM 4 hours×2) | efficacy (tumor cell death) of modelled dose schedule ([5]; continuous exposure for at least 8 hours) | NHEJ components Ku-70 and DNA-PKcs (RAD51 [6]) | RAD51 expression (RAD51 [6]) | bioavailability ([7]; 2 mg/kg, administered as immediate release capsules or an oral solution) | bioavailability ([7]; 2 mg/kg solution, from oral and IV AUC0-∞) |
| --- | --- | --- | --- | --- | --- | --- | --- | --- | --- | --- | --- | --- | --- | --- |
| CN(C)Cc1c(C(=O)NCCOc2ccc(C(=O)NO)cc2)oc2ccccc12 [Compound 1, N-hydroxy-4-{2-[3-(N,N-dimethylaminomethyl)benzofuran-2-ylcarbonylamino]ethoxy}-benzamide] | < 200 nM | suppressed bendamustine-induced RAD51 upregulation | 0.272 ± 0.051 µM·h | higher average grade of thrombocytopenia | therapeutic effect of Compound 1 was achieved | limited incidence of Grade 4 thrombocytopenia | 73% | better | more efficacious | good efficacy | not affected | downregulation of RAD51 | ~27% | ~27% |
| Cn1c(CCCC(=O)O)nc2cc(N(CCCl)CCCl)ccc21 [bendamustine] |  |  |  |  |  |  | 79% |  |  |  |  |  |  |  |
| CC(C)C[C@H](NC(=O)[C@H](Cc1ccccc1)NC(=O)c1cnccn1)B(O)O [bortezomib, reference compound] | < 50 nM |  |  |  |  |  |  |  |  |  |  |  |  |  |
